Columns and labels:
[1] = xn = mol fraction of the nth substance listed; settings: 298.15 K; for mass density: 101 kPa, Liquid
[2] = refractive index (Na D-line) (dimensionless); xn = mol fraction of the nth substance listed; settings: 298.15 K, 101 kPa, Liquid, Standard Abbe refractometry
[3] = 298.15 K; for mass density: 101.33 kPa, Liquid
[4] = refractive index (Na D-line) (dimensionless); settings: 298.15 K; 101.33 kPa; Liquid; Standard Abbe refractometry

CC(=O)O [acetic acid] + O
Settings	mass density, [1] [kg/m3]	refractive index, [2]	surface tension liquid-gas, [1] [mN/m]
x1 = 0.0001	–	–	71.79
x1 = 0.0005	–	–	71.18
x1 = 0.0007	997.41	1.33285	71.04
x1 = 0.0008	–	–	70.84
x1 = 0.0012	997.88	1.33312	70.37
x1 = 0.006	998.92	1.33422	66.17
x1 = 0.0066	–	–	65.76
x1 = 0.0119	1000.78	1.33576	62.57
x1 = 0.0138	–	–	61.57
x1 = 0.0234	–	–	58.26
x1 = 0.0257	1004.39	1.33874	57.45
x1 = 0.0404	–	–	53.14
x1 = 0.0516	1011.91	1.34364	50.64
x1 = 0.0746	–	–	47.25
x1 = 0.1086	–	–	43.43
x1 = 0.1108	1031.57	1.35281	43.39
x1 = 0.1513	1040.9	1.35708	40.12
x1 = 0.1814	1046.55	1.36009	39.24
x1 = 0.2288	1052.46	1.36386	38.17
x1 = 0.3053	1058.74	1.36818	36.5
x1 = 0.4129	1063.49	1.3723	34.8
x1 = 0.516	1064.54	1.37456	33.23
x1 = 0.6068	1063.64	1.37543	31.87
x1 = 0.7035	1061.07	1.37543	30.32
x1 = 0.8067	1057	1.37459	29.32
x1 = 0.9076	1051.89	1.37257	28.42

CC(=O)O [acetic acid]
Settings	mass density [kg/m3]	refractive index	surface tension liquid-gas [mN/m]
[3]	1043.95	–	27.08
[4]	–	1.36969	–

CCC(=O)O [propanoic acid] + O
Settings	mass density, [1] [kg/m3]	refractive index, [2]	surface tension liquid-gas, [1] [mN/m]
x1 = 0.0008	997.47	1.33292	68.52
x1 = 0.0016	997.64	1.33304	66.47
x1 = 0.0029	998.15	1.33367	63.66
x1 = 0.0044	998.68	1.33422	60.98
x1 = 0.0064	999.29	1.33485	57.91
x1 = 0.0103	1000.6	1.33606	53.54
x1 = 0.0179	1002.71	1.3385	48.16
x1 = 0.0272	1005.51	1.34145	44.12
x1 = 0.047	1006.86	1.34689	38.89
x1 = 0.0618	1008.97	1.35074	36.93
x1 = 0.0989	1017.17	1.35796	34.71
x1 = 0.2016	1022.07	1.37093	32.25
x1 = 0.3008	1021.51	1.3784	31.12
x1 = 0.4003	1018.87	1.38294	30.19
x1 = 0.5009	1014.33	1.38564	29.36
x1 = 0.6039	1010.12	1.3869	28.56
x1 = 0.702	1005.03	1.38721	27.91
x1 = 0.7666	1002.83	1.38709	27.52
x1 = 0.8784	996.68	1.38599	26.92

CCC(=O)O [propanoic acid]
Settings	mass density [kg/m3]	refractive index	surface tension liquid-gas [mN/m]
[3]	988.33	–	26.15
[4]	–	1.38484	–

Reference: the NIST ThermoML archive (doi:10.1021/je060084c)
